How the values were obtained:
Mus musculus [1] = species on record: Mus musculus; assay: Volume of fluid collected 8 days after tumor transplantation in mice.; format: functional; parameters: unit not given beside the values
Mus musculus [2] = species on record: Mus musculus; assay: Percentage inhibition as antitumor activity in carcinoma CF1 male mice.; format: functional; parameters: concentration or dose not given beside the values
[3] = Screening of Ehrlich ascites carcinoma cells in mice at 20 mg/kg/day intraperitoneally.; format: functional, Mus musculus; conditions: route intraperitoneal
Mus musculus [4] = species on record: Mus musculus; assay: Anticarcinoma activity of Diazomethyl Ketone against Ehrlich ascites Carcinoma pharmacological screens were reported; 6/6; format: functional
Mus musculus [5] = assay: Screening of Ehrlich ascites carcinoma cells in mice at 20 mg/kg/day, intraperitoneally; format: functional; conditions: route intraperitoneal
P388 [6] = assay: Survival of the mice for average number of days; expressed as average survival days; format: functional, Mus musculus
P388 [7] = assay: T/C expresses antileukemic activity measured as tested over that of control; T/C >/= 120 for significant activity; format: functional, Mus musculus
Mus musculus [8] = species on record: Mus musculus; assay: Anticarcinoma activity of Diazomethyl Ketone against Ehrlich ascites Carcinoma pharmacological screens were reported; 5/6; format: functional
Mus musculus [9] = species on record: Mus musculus; assay: Anticarcinoma activity of Diazomethyl Ketone against Ehrlich ascites Carcinoma pharmacological screens were reported; 8/8; format: functional
Mus musculus [10] = species on record: Mus musculus; assay: Anticarcinoma activity of Diazomethyl Ketone against Ehrlich ascites Carcinoma pharmacological screens were reported; 12/12; format: functional
P388 [11] = assay: T/C expresses antileukemic activity measured as tested over that of control; format: functional, Mus musculus
P388 [12] = assay: T/C expresses antileukemic activity measured as tested over that of control.; format: functional, Mus musculus
Mus musculus [13] = species on record: Mus musculus; assay: Anticarcinoma activity of Diazomethyl Ketone against Ehrlich ascites Carcinoma pharmacological screens were reported; 5/8; format: functional
Mus musculus [14] = species on record: Mus musculus; assay: Anticarcinoma activity of Diazomethyl Ketone against Ehrlich ascites Carcinoma pharmacological screens were reported; 7/8; format: functional
Mus musculus [15] = species on record: Mus musculus; assay: Volume of ascrit fluid collected 8 days after tumor transplantation in mice; format: functional

| Structure (SMILES) | Volume of ascrit fluid (Mus musculus [1]) | Inhibition (Mus musculus [2]) | ascrit [3] | Survival after 10 days (Mus musculus [4]) | Survival (P388 [6]) | Survival after 10 days (Mus musculus [8]) | T/C (P388 [12]) | further results |
| --- | --- | --- | --- | --- | --- | --- | --- | --- |
| Cc1ccc(S(=O)(=O)N2C(=O)CCC2C(=O)C=[N+]=N)cc1 (stereo unspecified) | 0.6 | 94.4% | 32 | 6 |  |  |  |  |
| Cc1ccc(S(=O)(=O)NCC(=O)C=[N+]=[N-])cc1 | 0.03 | 99.5% | 56 | 6 |  |  |  |  |
| Sc1ncnc2nc[nH]c12 [MERCAPTOPURINE ANHYDROUS] | 0.3 | 99.9% |  | 6 |  |  |  | ascrit (Mus musculus [5]): 0.7 |
| Cc1ccc(S(=O)(=O)NC(CC(C)C)C(=O)C=[N+]=[N-])cc1 (stereo unspecified) | 0.63 | 92.2% | 42.5 | 6 | 12.1 days |  |  | T/C (P388 [7]): 125 |
| Cc1ccc(S(=O)(=O)NCC(=O)CCl)cc1 | 0.04 | 99.9% | 0.01 |  | 13.2 days | 5 |  | T/C (P388 [7]): 137 |
| Cc1ccc(S(=O)(=O)N2CCC[C@H]2C(=O)C=[N+]=[N-])cc1 | 0.63 | 92.7% | 39.8 | 6 |  |  |  |  |
| Cc1ccc(S(=O)(=O)NC(C)C(=O)CCl)cc1 (stereo unspecified) | 1.6 | 78.4% | 46.5 |  |  |  |  | Survival after 10 days (Mus musculus [9]): 8 |
| O=c1[nH]cc(F)c(=O)[nH]1 [FLUOROURACIL] | 0.98 | 0% | 32.4 |  | 9.66 days |  |  | Survival after 10 days (Mus musculus [10]): 12; T/C (P388 [11]): 100 |
| Cc1ccc(S(=O)(=O)NCCC(=O)CCl)cc1 | 0.02 | 99.9% | 0.1 |  | 9.8 days | 5 | 101 |  |
| Cc1ccc(S(=O)(=O)N[C@H](C)C(=O)CCl)cc1 | 0.25 | 98.6% | 18.9 |  | 11 days | 5 | 114 |  |
| C=COC(=O)C(Cc1ccccc1)NS(=O)(=O)c1ccc(C)cc1 (stereo unspecified) | 7.74 | 56.8% | 19.2 |  |  | 5 |  |  |
| Cc1ccc(S(=O)(=O)NCCC(=O)C=[N+]=[N-])cc1 | 1.66 | 78.8% | 44 | 6 | 11.5 days |  | 119 |  |
| Cc1ccc(S(=O)(=O)NC(C(=O)C=[N+]=[N-])C(C)C)cc1 (stereo unspecified) | 0.93 | 85.5% | 52.7 | 6 |  |  |  |  |
| CCC(C)C(NS(=O)(=O)c1ccc(C)cc1)C(=O)CCl (stereo unspecified) | 1.34 | 86.6% | 34.5 |  | 10.5 days |  | 109 | Survival after 10 days (Mus musculus [13]): 5 |
| Cc1ccc(S(=O)(=O)NC(CC(C)C)C(=O)CCl)cc1 (stereo unspecified) | 2.65 | 80.4% | 25.5 |  | 10.3 days |  | 107 | Survival after 10 days (Mus musculus [9]): 8 |
| N#CCOC(=O)C(Cc1ccc(O)cc1)NC(=O)OCc1ccccc1 (stereo unspecified) | 10.82 | 38% | 19.7 | 6 |  |  |  |  |
| C=COC(=O)C(Cc1ccc(O)cc1)NS(=O)(=O)c1ccc(C)cc1 (stereo unspecified) | 4.92 | 75% | 17.5 | 6 |  |  |  |  |
| Cc1ccc(S(=O)(=O)NCCCCCC(=O)CCl)cc1 | 0.02 | 99.9% | 0.01 |  | 11.2 days | 5 | 116 |  |
| Cc1ccc(S(=O)(=O)NCCCCCC(=O)C=[N+]=[N-])cc1 | 0.5 | 93.8% | 42.5 |  | 11.8 days | 5 | 122 |  |
| Cc1ccc(S(=O)(=O)N2CCCC2C(=O)CCl)cc1 (stereo unspecified) | 2.7 | 76.5% | 30 |  | 10.2 days |  | 106 | Survival after 10 days (Mus musculus [13]): 5 |
| Cc1ccc(S(=O)(=O)N2C(=O)CCC2C(=O)CCl)cc1 (stereo unspecified) | 0.95 | 91.4% | 31 |  | 12.8 days |  |  | Survival after 10 days (Mus musculus [14]): 7; T/C (P388 [7]): 133 |
| Cc1ccc(S(=O)(=O)NC(C)C(=O)C=[N+]=[N-])cc1 (stereo unspecified) | 1.02 | 87.1% |  |  | 11.6 days | 5 | 120 |  |
| CCC(C)C(NS(=O)(=O)c1ccc(C)cc1)C(=O)C=[N+]=[N-] (stereo unspecified) | 1.92 | 74.7% | 45.4 |  | 12.1 days | 5 |  | T/C (P388 [7]): 126 |
| Cc1ccc(S(=O)(=O)NC(Cc2ccc(O)cc2)C(=O)OCC#N)cc1 (stereo unspecified) | 9.36 | 56% | 15.8 |  |  | 5 |  |  |
| N[C@@H](Cc1ccc(N(CCCl)CCCl)cc1)C(=O)O [MELPHALAN] | 3 | 99.9% | 0.1 | 6 |  |  |  |  |
| Cc1ccc(S(=O)(=O)NC(C(=O)CCl)C(C)C)cc1 (stereo unspecified) |  | 91.4% | 46.9 | 6 |  |  |  | Volume of ascrit fluid (Mus musculus [15]): 0.63 |
